Counter-ions that a name gives are not always drawn.
What was measured:
[1] = tested on: RS4;11 leukaemia tumour line; test: In vitro cytotoxicity (Microculture Tetrazolium Assay); assay type: cell-based; details: Homo sapiens, RS4-11, 48 h, RS4;11 cells, exposed for 48 hours, cell viability; read-out: IC50 (nM) MTT RS4;11
Experimental: The cytotoxicity studies were carried out on the RS4;11 leukaemia tumour line.
The cells are distributed onto microplates and exposed to the test compounds for 48 hours.
The cell viability is then quantified by a colorimetric assay, the Microculture Tetrazolium Assay (Cancer Res., 1987, 47, 939-942).

[2] = target: Bcl-2 protein (histag-Bcl-2, UniProtKB P10415) (Homo sapiens (Human), UniProt P10415); test: Inhibition of Bcl-2 by the fluorescence polarisation technique; assay type: binding; details: incubation for 2 hours, read-out: IC50 (nM) Bcl-2 FP
Chain of Bcl-2 protein (P10415 whole entry): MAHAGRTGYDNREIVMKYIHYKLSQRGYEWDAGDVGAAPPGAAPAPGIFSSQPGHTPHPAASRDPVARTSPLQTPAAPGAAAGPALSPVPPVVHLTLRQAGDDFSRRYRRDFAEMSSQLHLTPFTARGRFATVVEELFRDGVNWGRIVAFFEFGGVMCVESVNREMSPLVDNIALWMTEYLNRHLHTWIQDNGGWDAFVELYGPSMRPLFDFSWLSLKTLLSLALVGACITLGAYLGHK
Outline: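 Fluorescence polarisation competition: His-tagged Bcl-2 (2.50×10^−8 M final) with fluorescein-labelled peptide (1.00×10^−8 M final) in 10 mM Hepes, 150 mM NaCl, 0.05% Tween20, pH 7.4. Increasing compound concentrations were added. Polarisation was read after 2 h incubation.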

SMILES	IC50 [1] [nM]	IC50 [2] [nM]
Cc1c(C(=O)N(C)c2ccc(O)cc2)cc(-c2ccc(CNC(=O)NCc3ccccc3)cc2C(=O)N2Cc3ccccc3C[C@H]2C)n1C [Example 37, 5-(4-{[(Benzylcarbamoyl)amino]methyl}-2-{[(3R)-3-methyl-3,4-dihydroisoquinolin-2(1H)-yl]carbonyl}phenyl)-N-(4-hydroxyphenyl)-N,1,2-trimethyl-1H-pyrrole-3-carboxamide]	> 600	60.4
Cc1c(C(=O)N(c2ccc(O)cc2)c2ccnc(C#N)n2)cc(-c2cc(Cl)ccc2C(=O)N2Cc3ccccc3C[C@H]2CN2CCOCC2)n1C [Example 404, 5-(5-Chloro-2-{[(3S)-3-(morpholin-4-ylmethyl)-3,4-dihydroisoquinolin-2(1H)-yl]carbonyl}phenyl)-N-(2-cyanopyrimidin-4-yl)-N-(4-hydroxyphenyl)-1,2-dimethyl-1H-pyrrole-3-carboxamide hydrochloride]	85.5	24.4
Cc1c(C(=O)N(c2ccc(O)cc2)c2cnn(C3COC3)c2)cc(-c2cc(Cl)ccc2C(=O)N2Cc3ccccc3C[C@H]2CN2CCOCC2)n1C [Example 126, 5-(5-Chloro-2-{[(3S)-3-(morpholin-4-ylmethyl)-3,4-dihydroisoquinolin-2(1H)-yl]carbonyl}phenyl)-N-(4-hydroxyphenyl)-1,2-dimethyl-N-[1-(oxetan-3-yl) 1H-pyrazol-4-yl]-1H-pyrrole-3-carboxamide]	49.2	4.2
Cc1c(N(C(=O)c2cc(-c3ccc(F)cc3C(=O)N3Cc4ccccc4C[C@H]3CN3CCOCC3)n(C)c2C)c2ccc(O)cc2)cc(C#N)n1C [Example 428, N-(5-Cyano-1,2-dimethyl-1H-pyrrol-3-yl)-5-(4-fluoro-2-{[(3S)-3-(morpholin-4-ylmethyl)-3,4-dihydroisoquinolin-2(1H)-yl]carbonyl}phenyl)-N-(4-hydroxyphenyl)-1,2-dimethyl-1H-pyrrole-3-carboxamide hydrochloride]	59.2	3.5
COc1cnc(N(C(=O)c2cc(-c3cc(Cl)ccc3C(=O)N3Cc4ccccc4C[C@H]3CN3CCOCC3)n(C)c2C)c2ccc(O)cc2)cn1 [Example 444, 5-(5-Chloro-2-{[(3S)-3-(morpholin-4-ylmethyl)-3,4-dihydroisoquinolin-2(1H)-yl]carbonyl}phenyl)-N-(4-hydroxyphenyl)-N-(5-methoxypyrazin-2-yl)-1,2-dimethyl-1H-pyrrole-3-carboxamide hydrochloride]	181	5.5
Cc1c(C(=O)N(c2ccc(O)cc2)c2cc(C#N)n(C)c2)cc(-c2cc(Cl)ccc2C(=O)N2Cc3ccccc3C[C@H]2CN2CCOCC2)n1C [Example 108, 5-(5-Chloro-2-{[(3S)-3-(morpholin-4-ylmethyl)-3,4-dihydroisoquinolin-2(1H)-yl]carbonyl}phenyl)-N-(5-cyano-1-methyl-1H-pyrrol-3-yl)-N-(4-hydroxyphenyl)-1,2-dimethyl-1H-pyrrole-3-carboxamide hydrochloride]	15.4	3.9
Cc1c(N(C(=O)c2cc(-c3cc(Cl)ccc3C(=O)N3Cc4ccccc4C[C@H]3CN3CCOCC3)n(C)c2)c2ccc(O)cc2)cc(C#N)n1C [Example 415, 5-(5-Chloro-2-{[(3S)-3-(morpholin-4-ylmethyl)-3,4-dihydroisoquinolin-2(1H)-yl]carbonyl}phenyl)-N-(5-cyano-1,2-dimethyl-1H-pyrrol-3-yl)-N-(4-hydroxyphenyl)-1-methyl-1H-pyrrole-3-carboxamide hydrochloride]	29.9	3.8
Cc1c(C(=O)N(c2ccc(O)cc2)c2cnn(C)c2)cc(-c2ccc(F)cc2C(=O)N2Cc3ccccc3C[C@H]2CN2CCOCC2)n1C [Example 447, 5-(4-Fluoro-2-{[(3S)-3-(morpholin-4-ylmethyl)-3,4-dihydroisoquinolin-2(1H)-yl]carbonyl}phenyl)-N-(4-hydroxyphenyl)-1,2-dimethyl-N-(1-methyl-1H-pyrazol-4-yl)-1H-pyrrole-3-carboxamide hydrochloride]	> 600	20
CN1CCN(C[C@@H]2Cc3ccccc3CN2C(=O)c2ccc(Cl)cc2-c2cc(C(=O)N(c3ccc(O)cc3)c3ccc4c(ccn4C)c3)cn2C2CC2)CC1 [Example 7, 5-(5-Chloro-2-{[(3S)-3-[(4-methylpiperazin-1-yl)methyl]-3,4-dihydroisoquinolin-2(1H)-yl]carbonyl}phenyl)-1-cyclopropyl-N-(4-hydroxyphenyl)-N-(1-methyl-1H-indol-5-yl)-1H-pyrrole-3-carboxamide]	90.6	25.6
Cc1c(C(=O)N(c2ccc(O)cc2)c2cccc(C#N)n2)cc(-c2cc(Cl)ccc2C(=O)N2Cc3ccccc3C[C@H]2CN2CCOCC2)n1C [Example 109, 5-(5-Chloro-2-{[(3S)-3-(morpholin-4-ylmethyl)-3,4-dihydroisoquinolin-2(1H)-yl]carbonyl}phenyl)-N-(6-cyanopyridin-2-yl)-N-(4-hydroxyphenyl)-1,2-dimethyl-1H-pyrrole-3-carboxamide hydrochloride]	930	91.5
Cc1c(C(=O)N(C)c2ccc(O)cc2)cc(-c2ccc(CNS(=O)(=O)CCc3ccc(F)cc3)cc2C(=O)N2Cc3ccccc3C[C@H]2C)n1C [Example 59, 5-(4-[({[2-(4-Fluorophenyl)ethyl]sulphonyl}amino)methyl]-2-{[(3R)-3-methyl-3,4-dihydroisoquinolin-2(1H)-yl]carbonyl}phenyl)-N-(4-hydroxyphenyl)-N,1,2-trimethyl-1H-pyrrole-3-carboxamide]	> 600	134
COc1ccc(-c2cc(C(=O)N(c3ccc(O)cc3)c3cnn(C)c3)c(C)n2C)c(C(=O)N2Cc3ccccc3C[C@H]2CN2CCOCC2)c1 [Example 418, N-(4-Hydroxyphenyl)-5-(4-methoxy-2-{[(3S)-3-(morpholin-4-ylmethyl)-3,4-dihydroisoquinolin-2(1H)-yl]carbonyl}phenyl)-1,2-dimethyl-N-(1-methyl-1H-pyrazol-4-yl)-1H-pyrrole-3-carboxamide hydrochloride]	159	10.1
Cc1c(C(=O)N(c2ccc(O)cc2)c2cc(C#N)n(CCN3CCOCC3)c2C)cc(-c2cc(Cl)ccc2C(=O)N2Cc3ccccc3C[C@H]2C)n1C [Example 455, 5-(5-Chloro-2-{[(3R)-3-methyl-3,4-dihydroisoquinolin-2(1H)-yl]-carbonyl}phenyl)-N-{5-cyano-2-methyl-1-[2-(morpholin-4-yl)ethyl]-1H-pyrrol-3-yl}-N-(4-hydroxyphenyl)-1,2-dimethyl-1H-pyrrole-3-carboxamide hydrochloride]	11.8	1.9
Cc1c(C(=O)N(c2ccc(O)cc2)c2cc(C#N)nn2C)cc(-c2cc(Cl)ccc2C(=O)N2Cc3ccccc3C[C@H]2CN2CCOCC2)n1C [Example 450, 5-(5-Chloro-2-{[(3S)-3-(morpholin-4-ylmethyl)-3,4-dihydroisoquinolin-2(1H)-yl]carbonyl}phenyl)-N-(3-cyano-1-methyl-1H-pyrazol-5-yl)-N-(4-hydroxyphenyl)-1,2-dimethyl-1H-pyrrole-3-carboxamide hydrochloride]	53.2	2.7
